Assay [1] concerns BE2-M17 (Neuroblastoma). The assay is described as follows: combination Emax (second highest fraction inhibited in the dose matrix, 72 h); higher = more inhibition; extreme values may be limits of the assay. The method in brief: (§1)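 Bliss excess equals the observed combination effect minus the expected value EA + EB − EA·EB, where EA and EB are the effects of each agent alone. Combination Emax is the second-highest inhibition within the matrix. Inhibition was scaled from CellTiter-Glo 2.0 luminescence, with 0 set by vehicle wells and 1 by blank wells, after 72 hours of two-drug dosing of cells plated in 1536-well plates.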

In assay [2] the test system is SNU-16 (Gastric Carcinoma). The description is as above. The method in brief:
as §1

For assay [3], the system named is LNZTA3WT4 (Low Grade Glioma). The assay is described as above. The method, boiled down:
as §1

Assay [4] has as its system EW-11 (Ewing's Sarcoma). Described as above. The method in brief: as §1
Assay [5] concerns LCLC-97TM1 (Non-Small Cell Lung Carcinoma). Described as above. The method, boiled down:
as §1

The subject of assay [6] is HuCCT1 (Biliary Tract Carcinoma). Described as above. The method, boiled down:
as §1

The subject of assay [7] is OE21 (Esophageal Squamous Cell Carcinoma). The assay is described as above. The method, boiled down:
as §1

Assay [8] relates to NUGC-4 (Gastric Carcinoma). Described as above. The method, boiled down:
as §1

Assay [9] relates to FTC-133 (Thyroid Gland Carcinoma). Described as above. The method, boiled down: as §1
Assay [10] deals with SW1573 (Lung Adenocarcinoma). The description is as above. The method, boiled down:
as §1

Assay [11] deals with L-428 (Hodgkin's Lymphoma). Described as above. The method in brief: as §1
The subject of assay [12] is NCI-H2052 (Mesothelioma). Described as above. The method, boiled down: as §1
Assay [13] has as its system HeLa (Cervical Carcinoma). The assay is described as above. The method, boiled down:
as §1

The subject of assay [14] is CAL-72 (Osteosarcoma). The description is as above. The method, boiled down: as §1
In assay [15] the test system is LNZTA3WT4 (Low Grade Glioma). The assay is described as follows: Bliss excess, mean over the matrix (fraction); higher = more synergy. The method in brief:
as §1

Assay [16] concerns YAPC (Pancreatic Carcinoma). The description is as above. The method in brief:
as §1

Assay [17] concerns Hs-746T (Gastric Carcinoma). The description is as above. The method in brief:
as §1

The subject of assay [18] is FTC-133 (Thyroid Gland Carcinoma). Described as above. The method, boiled down:
as §1

Assay [19] concerns Detroit562 (Head and Neck Carcinoma). The description is as above. The method, boiled down: as §1

The values that follow come from the supplement of paper PMC11061612.

Take `COc1cccc(OCCCN)c1-c1cc(Nc2cnc(C#N)cn2)n[nH]1` [Prexasertib] + Cc1cc2ncnn2cc1Nc1ncc2c(n1)n(C1CCOCC1)c(=O)n2C [AZD7648] (first compound max 1 µM, 7x7, partner max 10 µM): the “combination Emax” value in assay [1] turned out to be 0.983; in assay [2] it was 0.998; in [3], 0.9; in [4], 0.742; in assay [5] it was 0.938; in assay [6] it was 0.83. The “combination Emax” value in [7] came out at 0.788; in assay [8], 0.493; in [9], 0.82; in [10], 0.201; in assay [11] it was 0.958; in [12], 0.649. For the same compound, the “combination Emax” value in assay [13] was 0.839; in assay [14], 0.994. Further, the Bliss excess in assay [15] was -0.064; in [16], -0.0172; in assay [17], -0.0512; in assay [18], -0.0311; in assay [19], -0.0342.

Consider `CN(C)CCCOc1ccc(-c2ccc3ncc4c(c3c2)n(C2CCOCC2)c(=O)n4C)cn1` [AZD0156] + CCN(CCO)CCCOc1ccc2c(Nc3cc(CC(=O)Nc4cccc(F)c4)[nH]n3)ncnc2c1 [AZD2811] (first compound max 1 µM, 7x7, partner max 1 µM), for which the “combination Emax” value turned out to be 0.411 in assay [1]; 0.593 in [2]; 0.105 in assay [3]; 0.409 in assay [4]; 0.371 in assay [5]; 0.137 in [6]. Further, the “combination Emax” value in [7] turned out to be 0.22; in [8], 0.0855; in assay [9], 0.284; in assay [10], 0.168; in [11], 0.187; in [12] it was 0.284. The “combination Emax” value in assay [13] amounted to 0.156; in assay [14] it was 0.286. For the same compound, the Bliss excess is -0.0162 in assay [15]; -0.0536 in assay [16]; -0.0747 in assay [17]; -0.0214 in assay [18]; 0.0235 in assay [19].

For the compound `COc1cccc(OCCCN)c1-c1cc(Nc2cnc(C#N)cn2)n[nH]1` [Prexasertib] + O=C(c1cc(Cc2n[nH]c(=O)c3ccccc23)ccc1F)N1CCN(C(=O)C2CC2)CC1 [Olaparib] (first compound max 1 µM, 7x7, partner max 10 µM), the “combination Emax” value in assay [1] is 0.958; in assay [2], 1; in [3], 0.885; in [4], 0.792; in assay [5], 0.936; in assay [6], 0.844. The “combination Emax” value in [7] was determined as 0.678; in assay [8] it was 0.415; in assay [9], 0.915; in assay [10] it was 0.241; in assay [11], 0.953; in assay [12] it was 0.589. Further, the “combination Emax” value in assay [13] was determined as 0.773; in assay [14], 0.81. Besides, the Bliss excess was -0.0274 in [15]; -0.0491 in assay [16]; -0.0198 in [17]; -0.0399 in [18]; -0.0467 in assay [19].

In the case of `C=CCn1c(=O)c2cnc(Nc3ccc(N4CCN(C)CC4)cc3)nc2n1-c1cccc(C(C)(C)O)n1` [AZD1775] + O=C(c1cc(Cc2n[nH]c(=O)c3ccccc23)ccc1F)N1CCN(C(=O)C2CC2)CC1 [Olaparib] (first compound max 1 µM, partner max 10 µM), the “combination Emax” value in assay [1] was 0.462; in [2], 0.931; in assay [3] it was 0.806; in assay [4] it was 0.599; in assay [5], 0.774; in assay [6], 0.818. In addition, the “combination Emax” value in [7] turned out to be 0.498; in assay [8], 0.302; in assay [9], 0.602; in assay [10] it was 0.317; in assay [11] it was 0.842; in assay [12], 0.467. In addition, the “combination Emax” value in assay [13] was 0.694; in assay [14], 0.756. For the same compound, the Bliss excess is -0.0395 in assay [15]; -0.071 in [16]; -0.0594 in assay [17]; -0.0645 in [18]; -0.0389 in assay [19].

`C=CCn1c(=O)c2cnc(Nc3ccc(N4CCN(C)CC4)cc3)nc2n1-c1cccc(C(C)(C)O)n1` [AZD1775] + C[C@@H]1COCCN1C2=NC(=NC(=C2)C3(CC3)[S@](=N)(=O)C)C4=C5C=CNC5=NC=C4 [AZD6738] (first compound max 1 µM, partner max 10 µM): the “combination Emax” value was found to be 0.957 in [1]; 0.989 in assay [2]; 0.9 in assay [3]; 0.72 in assay [4]; 0.891 in assay [5]; 0.861 in [6]. Besides, the “combination Emax” value in [7] is 0.746; in assay [8] it was 0.593; in assay [9], 0.766; in assay [10] it was 0.476; in assay [11] it was 0.891; in assay [12] it was 0.488. Moreover, the “combination Emax” value in assay [13] was determined as 0.948; in [14], 0.93. For the same compound, the Bliss excess in assay [15] is 0.0076; in assay [16] it was -0.0399; in assay [17], -0.0095; in [18], 0.0508; in assay [19], -0.002.

As for `C[C@@H]1COCCN1c1cc(C2([S@](C)(=N)=O)CC2)nc(-c2ccnc3[nH]ccc23)n1` [AZD6738] + O=C(c1cc(Cc2n[nH]c(=O)c3ccccc23)ccc1F)N1CCN(C(=O)C2CC2)CC1 [Olaparib] (first compound max 10 µM, 7x7, partner max 10 µM), the “combination Emax” value is 0.74 in assay [1]; 0.956 in assay [2]; 0.778 in assay [3]; 0.72 in assay [4]; 0.826 in [5]; 0.784 in assay [6]. Also, the “combination Emax” value in assay [7] came to 0.661; in [8] it was 0.551; in assay [9], 0.672; in assay [10], 0.217; in assay [11] it was 0.728; in assay [12] it was 0.478. In addition, the “combination Emax” value in assay [13] stood at 0.713; in assay [14] it was 0.8. Moreover, the Bliss excess in [15] is -0.0197; in [16], -0.0007; in assay [17], 0.0101; in [18], -0.0401; in [19] it was 0.0381.
